# Results published in ChEMBL document CHEMBL1156829 (Proc Natl Acad Sci U S A, 2008).
# Columns and labels:
# Plasmodium falciparum [1] = test: NOVARTIS: Inhibition of Plasmodium falciparum 3D7 (drug-susceptible) proliferation in erythrocyte-based infection assay; format: functional, organism-based; conditions: Plasmodium falciparum, 3D7
# Plasmodium falciparum [2] = test: NOVARTIS: Inhibition of Plasmodium falciparum W2 (drug-resistant) proliferation in erythrocyte-based infection assay; format: functional, organism-based; conditions: Plasmodium falciparum, W2; read-out: EC50
# [3] = NOVARTIS: Cytotoxicity against human hepatocellular carcinoma cell line (Huh7); format: toxicity, cell-based, Huh-7; conditions: Huh7 cells (hepatocellular carcinoma cell line)
SMILES,EC50 (Plasmodium falciparum [1]),EC50 (Plasmodium falciparum [2]),CC50 [3]
CCCCOc1ccc(N2C(N)=NC(N)=NC2(C)C)cc1,156 nM,> 1250 nM,> 10 µM
Cc1ccccc1/C=C1\SC(=Nc2ccccc2)NC1=O,1060 nM,> 12500 nM,> 100 µM
CCOC(=O)c1cccc(N2C(N)=NC(N)=NC2(C)C)c1,148 nM,> 1250 nM,> 10 µM
CCOc1ccc(N2C(N)=NC(N)=NC2(C)C)cc1,79 nM,> 12500 nM,> 100 µM
O=C(Nc1ccc(-c2nnc(-c3ccc(NC(=O)c4ccccc4[N+](=O)[O-])cc3)o2)cc1)c1ccccc1[N+](=O)[O-],406 nM,> 12500 nM,> 100 µM
CN(C)CCNC(=O)c1ccc(-c2cncc(NCc3ccc(Cl)c(Cl)c3)c2)cc1,640 nM,284 nM,10.3 µM
COc1ccc(N2C(N)=NC(N)=NC2(C)C)cc1,13.8 nM,> 1250 nM,> 10 µM
COc1cc(C=C2CCC(=Cc3cc(OC)c(OC)c(OC)c3)C2=O)cc(OC)c1OC,2210 nM,2750 nM,> 100 µM
CCN1CCN(c2cc(C)c3cc(NC(=O)C=Cc4ccc(OC)cc4)ccc3n2)CC1,2020 nM,2750 nM,> 100 µM
CCN(CC)CCCNC(=S)N(Cc1cc2ccc(OC)cc2[nH]c1=O)C1CCCCC1,4030 nM,1120 nM,40.8 µM
CC1CCC(C(C)(C)Oc2ccc(NC(=O)c3ccccc3)cc2)CC1 (configuration not stated),3970 nM,1170 nM,42.8 µM
CC1=C(C(=O)OC2CCCCC2)C(c2ccc(F)c(F)c2)C2=C(CCCC2=O)N1 (configuration not stated),6230 nM,2730 nM,> 100 µM
Cc1cc(N2CCN(c3ccccn3)CC2)n2c(nc3ccccc32)c1C#N,1400 nM,2760 nM,> 100 µM
O=C(NC(CN1CCCC1)c1ccccc1)C1CCCCN1S(=O)(=O)c1ccc(Cl)cc1 (configuration not stated),189 nM,514 nM,18.6 µM
CCCCCCCSc1c(O)c2ccc(Cl)cc2[nH]c1=O,122 nM,272 nM,> 10 µM
NCCC(=O)N1CC(c2ccccc2)c2ccccc2C1CN1CCCCC1 (configuration not stated),342 nM,231 nM,8.52 µM
Cc1ccc(C(CCNc2ncnc3c2[nH]c2ccccc23)c2ccco2)cc1 (configuration not stated),736 nM,524 nM,19.4 µM
CC1CC(=O)NN=C1c1ccc(NC(=O)c2ccccc2)cc1 (configuration not stated),305 nM,270 nM,> 10 µM
O=C(Nc1ccc(NC(=O)Nc2ccc(C3=NCCN3)cc2)cc1)Nc1ccc(C2=NCCN2)cc1,305 nM,276 nM,> 10 µM
Cc1cccc(-c2nc3cc(NC(=O)c4ccc([N+](=O)[O-])o4)ccc3o2)c1,1720 nM,> 12500 nM,> 100 µM
Cc1ccc(CNC(=O)CSc2nc3ccsc3c(=O)n2CCCCCC(=O)NCCc2ccccc2)cc1,4430 nM,2720 nM,> 100 µM
O=C(CN1C(=O)C2C3CCC(C3)C2C1=O)N1CCCC(c2ncncc2-c2ccncc2)C1 (configuration not stated),246 nM,> 1250 nM,> 10 µM
C/C=C(\Cl)C1=CC(=O)[C@]23C[C@H]2[C@@]2(C)CO[C@@]1(O)[C@@]3(O)O2,205 nM,> 1250 nM,> 10 µM
Cc1cc(CNC(=O)CC2C(=O)NCCN2Cc2ccccc2C(F)(F)F)nn1C (configuration not stated),> 27.4 nM,> 1250 nM,> 10 µM
CN(C)c1ccc(N2C(N)=NC(N)=NC2(C)C)cc1,18.8 nM,> 1250 nM,> 10 µM
COc1cc2c(cc1OC)C(CCCCCl)=NC(C)(C)C2,343 nM,> 12500 nM,> 100 µM
O=C(C=Cc1ccccc1Cl)Nc1ccc(Oc2ccc3ccccc3c2Cl)c(Cl)c1,1030 nM,> 12500 nM,> 100 µM

SMILES,EC50 (Plasmodium falciparum [1]),EC50 (Plasmodium falciparum [2]),CC50 [3]
CC1=C(C(=O)OC2CCCCC2)C(c2ccc(Cl)c(Cl)c2)C2=C(CCCC2=O)N1 (configuration not stated),735 nM,> 12500 nM,> 100 µM
COc1cccc(-c2nc(CS(=O)(=O)CC(=O)N3CC(C)CC(C)C3)c(C)o2)c1 (configuration not stated),136 nM,> 1250 nM,> 10 µM
CCCCCN(C(=O)c1ccc(C(C)(C)C)cc1)C(CC)c1nc2ccccc2c(=O)n1-c1ccccc1OC (configuration not stated),> 117 nM,> 1250 nM,> 10 µM
Cc1nc(Cl)cc(N2CCc3c(nc(N4CC(C)OC(C)C4)[nH]c3=O)C2)n1 (configuration not stated),176 nM,> 1250 nM,> 10 µM
COc1cccc(-c2ccc(O)c(CNC3CCN(Cc4ccccc4)CC3)c2)n1,376 nM,163 nM,5.94 µM
Cn1nc(C(=O)N2CCc3ccccc3C2)c2c1CCC(N1CCN(Cc3cccc(F)c3)CC1)C2 (configuration not stated),477 nM,220 nM,8.02 µM
Oc1c2c(nc3cc(-c4ccccc4)nn13)CCCC2,1930 nM,> 12500 nM,> 100 µM
O=C(c1ccc([N+](=O)[O-])cc1)c1ccc(N2CCOCC2)c([N+](=O)[O-])c1,4200 nM,2720 nM,> 100 µM
CN(CCCNc1ccnc2cc(Cl)ccc12)C(=O)c1cccc(Cl)c1,269 nM,202 nM,7.34 µM
Cc1ccc(N2C(N)=NC(N)=NC2(C)C)c(C)c1,105 nM,> 12500 nM,> 100 µM
COc1ccccc1CN1CCc2nc(N3CCCCC3)sc2C1,454 nM,277 nM,> 10 µM
CC(C)NC(=O)CN(C)C1c2ccccc2CCc2ccccc21,> 1380 nM,254 nM,> 9.18 µM
O=C1C2C(C(=O)N1Cc1ccccc1)C1(c3ccccc3)C(=O)C2(c2ccccc2)C(c2ccccc2)=C1c1ccccc1 (configuration not stated),822 nM,> 12500 nM,> 100 µM
Cc1ccc(N2C(=O)C3C(C2=O)C2(c4ccccc4)C(=O)C3(c3ccccc3)C(c3ccccc3)=C2c2ccccc2)cc1[N+](=O)[O-] (configuration not stated),822 nM,> 12500 nM,> 100 µM
CC1=C2C(=O)c3ccccc3C2NC(=O)N1 (configuration not stated),> 352 nM,> 12500 nM,> 100 µM
CCOc1cccc2c(C)nc(NC(=N)N)nc12,358 nM,1540 nM,56.5 µM
CC(C)[C@@H](CO)Nc1ccnc2c(-c3ccccc3F)cnn12,> 1250 nM,> 272 nM,> 10 µM
COC(=O)c1cn([C@H]2C[C@@H](C(=O)NCc3ccc(OC)cc3)N(Cc3ccsc3)C2)nn1,> 1710 nM,200 nM,> 7.38 µM
Cc1cccc(-n2nc3c(c2NC(=O)c2ccc4c(c2)OCO4)CS(=O)(=O)C3)c1C,124 nM,> 1250 nM,> 10 µM
Cc1oc2c(cc(NS(=O)(=O)c3ccc(F)cc3)c3ccccc32)c1C(=O)OCc1ccccc1,> 1430 nM,> 12500 nM,> 100 µM
CCCc1ccc(OCc2nc(-c3ccc(NC(=O)c4cccs4)cc3)no2)cc1,825 nM,> 12500 nM,> 100 µM
CC(C)(C)C(=O)Nc1ccc(C23CC4CC(CC(c5ccccc5)(C4)C2)C3)cc1,716 nM,> 12500 nM,> 100 µM
O=C(Cc1cccs1)NC1CCN(CC(O)CN(Cc2ccccc2)S(=O)(=O)c2ccccc2)C1 (configuration not stated),181 nM,> 1250 nM,> 10 µM
Cc1ccc2c(c1)N=C(c1ccc([N+](=O)[O-])cc1)CO2,> 1300 nM,> 12500 nM,> 100 µM
O=C(O)c1cc([N+](=O)[O-])ccc1Oc1cncc(Cl)c1,33.3 nM,> 1250 nM,> 10 µM
CCOC(=O)c1c[nH]c2ccc(C)cc2c1=O,2700 nM,2760 nM,> 100 µM
CCCCOc1ccc(C(=O)NCCOc2cccc(OC)c2)cc1,288 nM,> 12500 nM,> 100 µM
